Results on three compounds are retold here after patent US6974797B2, “Cross-linked glycopeptide-cephalosporin antibiotics” (Theravance, Inc., priority 2001, dated 2005).

The test system of data set [1] is Methicillin-resistant S. aureus (MRSA). Briefly: Minimal inhibitory concentration (MIC90), broth microdilution, MRSA strains. It is filed as cell-based, Staphylococcus aureus. Here is the method: (§1) Minimal inhibitory concentration (MICs) assays were performed using the broth microdilution method set forth in NCCLS guidelines (see, NCCLS. 2000. Methods for Dilution Antimicrobial Susceptibility Tests for Bacteria That Grow Aerobically; Approved Standard—Fifth Ed., Vol. 20, No. 2). Bacterial strains were obtained from the American Type Tissue Culture Collection (ATCC), Stanford University Hospital (SU), Kaiser Permanente Regional Laboratory in Berkeley (KPB), Massachusetts General Hospital (MGH), the Centers for Disease Control (CDC), the San Francisco Veterans' Administration Hospital (SFVA) or the University of California San Francisco Hospital (UCSF). Vancomycin-resistant enterococci were phenotyped as Van A or Van B based on their sensitivity to teicoplanin. Some vancomycin-resistant enterococci that had been genotyped as Van A, Van B, Van C1 or Van C2 were also obtained from the Mayo Clinic.
(§2) In this assay, cryopreserved bacterial cultures of reference and clinical strains were streaked for isolation on appropriate agar medium (i.e., Trypticase Soy Agar, Trypticase Soy Agar with defibrinated sheep erthrocytes, Brain Heart Infusion Agar, Chocolate Agar). Following incubation to allow formation of colonies, these plates were sealed with parafilm and stored refrigerated for up to two weeks. […] The MIC was read visually as the lowest concentration well with no bacterial growth. […]
On the technique in general: Broth dilution looks for growth in wells or tubes with falling amounts of substance.

Data set [2] has as its system Methicillin-resistant S. epidermitis (MRSE) and other coagulase-negative staphylococci. The experiment in a line: Minimal inhibitory concentration (MIC90), broth microdilution, MRSE and other coagulase-negative staphylococci. It is filed as cell-based, Staphylococcus epidermidis. Here is the method:
as §1, §2

Data set [3] concerns methicillin-resistant S. aureus strains. Briefly: Minimal inhibitory concentration (MIC), broth microdilution, individual MRSA strains. In kind it is cell-based, Staphylococcus aureus. The method, then: as §1
In this assay, cryopreserved bacterial cultures of reference and clinical strains were streaked for isolation on appropriate agar medium (i.e., Trypticase Soy Agar, Trypticase Soy Agar with defibrinated sheep erthrocytes, Brain Heart Infusion Agar, Chocolate Agar). Following incubation to allow formation of colonies, these plates were sealed with parafilm and stored refrigerated for up to two weeks. For preparation of assay inocula and to ensure low variability, several colonies from a bacterial isolate cultured on the agar plates were pricked with an inoculating loop and aseptically transferred to Mueller-Hinton Broth (supplemented with divalent cations to required levels based on manufacturer's certification). The broth culture was grown overnight at 35° C., diluted in fresh prewarmed broth and grown to log phase; this is equivalent to a 0.5 MacFarland standard or 1×10^8 colony forming units per milliliter (CFU/mL). Not all cell suspensions, due to species variability, contained 1×10^8 CFU/mL when turbidity is equivalent to the MacFarland standard, therefore acceptable adjustments (based on NCCLS guidelines) were made in dilutions of different bacterial strains. […] The plates were then incubated 18-24 hours at 35° C. The MIC was read visually as the lowest concentration well with no bacterial growth. Bacterial growth is defined as more than three pinpoint colonies, a button of precipitated cells larger than 2 mm in diameter, or obvious turbidity.
Strains routinely tested in the initial screen included methicillin-sensitive Staphylococcus aureus (MSSA), methicillin-resistant Staphylococcus aureus (MRSA), Staphylococcus aureus producing penicillinase, methicillin-sensistive Staphylococcus epidermidis (MSSE), methicillin-resistant Staphylococcus epidermidis (MRSE), vancomycin-sensitive Enterococcus faecium (EFMVS), vancomycin-sensitive Enterococcus faecalis (EFSVS), vancomycin-resistant Enterococcus faecium also resistant to teicoplanin (EFMVR Van A), vancomycin-resistant Enterococcus faecium sensistive to teicoplanin (EFMVR Van B), vancomycin-resistant Enterococcus faecalis also resistant to teicoplanin (EFSVR Van A), vancomycin-resistant Enterococcus faecalis sensitive to teicoplanin (EFSVR Van B), penicillin-sensitive Streptococcus pneumoniae (PSSP) and penicillin-resistant Streptococcus pneumoniae (PSRP). Because of the inability of PSSP and PSRP to grow well in Mueller-Hinton broth, MICs with those strains were determined using either TS broth supplemented with defibrinated blood or Haemophilus test medium.

Another data set concerns MSSA 13709. The experiment in a line: Time-kill assay, MSSA 13709. It is filed as cell-based, Staphylococcus aureus. The method, then:
(§3) This time-kill assay is a method for measuring the rate of bactericidal activity of a test compound. […] A rapid time-kill is desirable to quickly prevent bacterial colonization and reduce host tissue damage.
(§4) Bacteria were diluted in prewarmed media in shake flasks and incubated with shaking (200 rpm, 35° C.). At 0, 1, 4, and 24 hours samples were withdrawn from the flasks and bacteria were enumerated by plate counting. Subsequent to the initial sampling, a compound to be assayed was added to the shake flask culture. Plate counts at these intervals previous to and following addition of the compound were expressed graphically in a time-kill curve.

The subject of data set [4] is MRSA 33591. The experiment in a line: Time-kill assay, MRSA 33591. It is filed as cell-based, Staphylococcus aureus. Here is the method:
as §3, §4

For data set [5], the system named is MRSA 33591. Briefly: In vivo efficacy in neutropenic mice (thigh infection). Also noted: species or system Staphylococcus aureus. The settings on record: neutropenic male CD-1 mice, MRSA 33591 thigh infection, iv, 24 hours post-treatment. The method, then:
Animals (male CD-1 mice, 20-30 g) were acquired from Charles Rivers Laboratories (Gilroy, Calif.) and allowed access to food and water ad libitum. Neutropenia was induced via 200 mg/kg intraperitoneal (IP) injection of cyclophosphamide given four and two days prior to the inoculation of bacteria.
The organism used was either a susceptible or resistant strain of clinically relevant gram positive pathogens, such as methicillin-susceptible Staphylococcus aureus (MSSA 13709) and methicillin-resistant Staphylococcus aureus (MRSA 33591). The bacterial inoculum concentration was ˜10^6 CFU/mL. Animals were lightly anesthetized with isoflurane and […] of the bacterial inoculum was injected into the anterior thigh. One hour after the inoculation, animals were dosed intravenously with vehicle or the appropriate dose of the test compound. At 0 hours and 24 hours post-treatment, the animals were euthanized (CO2 asphyxiation) and the anterior and posterior thigh collected aseptically. The thigh was placed into 10 mL sterile saline and homogenized. Dilutions of the homogenate were plated onto triptic soy agar plates which were incubated overnight. The number of bacterial colonies on a given plate was multiplied by the dilution factor, divided by the thigh weight (in grams) and expressed as log CFU/g. […]

For data set [6] the following is noted: 5 wt. % dextrose buffer solution, titrated to pH 3, duplicate sample preparations.
Experimental: The aqueous solubility of a compound of this invention was determined using the following procedure. A 5 wt. % dextrose buffer solution at pH 2.2 was prepared by adding 1 mL of 1 N hydrochloric acid (Aldrich) to 99 mL of a 5 wt. % aqueous dextrose solution (Baxter).
A 1 mg/mL stock solution for calibration standards was then prepared by dissolving 1 mg of the test compound in 1 mL of DMSO. This solution was vortexed for 30 seconds and then sonicated for 10 minutes. The stock solution was then diluted with water to prepare calibration standards having the following concentrations: 50, 125, 250, 375 and 500 ug/mL.
Each test compound (30 mg) was weighed into a Millipore non-sterile, Ultrafree-MC 0.1 um filter unit (Millipore UFC30VVOO) and a magnetic stir bar was added to each unit. The 5 wt. % dextrose buffer solution (750 uL) was then added to each unit and these mixtures were vortexed for 5 minutes. The filter units were then placed in an Eppendorf tube rack and the tube rack was placed on top of a magnetic stirrer. […]
The calibration standards and the test samples were analyzed by reverse-phase HPLC using the following conditions:
The solubility of each test sample was calculated by comparing the peak area of the test sample to the calibration curve and multiplying by the dilution factor.

Values after ≈ are worked out from the molar mass of the structure shown.

`CNC(CC(C)C)C(=O)NC1C(=O)NC(CC(N)=O)C(=O)NC2C(=O)NC3C(=O)NC(C(=O)NC(C(=O)NCCCON=C(C(=O)NC4C(=O)N5C(C(=O)[O-])=C(C[n+]6ccccc6)CSC45)c4nc(N)sc4Cl)c4cc(O)cc(O)c4-c4cc3ccc4O)C(O)c3ccc(c(Cl)c3)Oc3cc2cc(c3OC2OC(CO)C(O)C(O)C2OC2CC(C)(N)C(O)C(C)O2)Oc2ccc(cc2Cl)C1O.Cl.Cl.Cl` (centres unmarked) [Compound 1]: the “MIC90 (minimum inhibitory concentration for 90% of strains tested)” value in data set [1] (n = 53 strains) is below 0.1 µg/mL; in data set [2] (MRSE and other coagulase-negative staphylococci, n = 34 strains) it was below 0.1 µg/mL. Besides, the minimum inhibitory concentration (MIC) entry in data set [3] (MRSA 33591), in data set [3] (MRSA MED-84), in data set [3] (MRSA MED-85), in data set [3] (MRSA MED-86), in data set [3] (MRSA MED-87) and in data set [3] (MRSA MED-88) was “≦0.1 μg/mL” in each case. The MIC (commonly the lowest concentration found to suppress growth) in data set [3] (MRSA MED-89) was “≦0.1 μg/mL”; in data set [3] (MRSA MED-103), “≦0.1 μg/mL”; in data set [3] (MRSA MED-104), 0.10 µg/mL; in data set [3] (MRSA MED-107), “≦0.1 μg/mL”; in data set [3] (MRSA MED-110), 0.20 µg/mL; in data set [3] (MRSA MED-572), “≦0.1 μg/mL”. Besides, the “bactericidal concentration (≧3 log decrease in bacterial cell numbers)” value in the data set on MSSA 13709 (MSSA 13709, in 4 hours) was at most 1 μg/mL; in the data set on MRSA 33591 [4] (MRSA 33591, in 4 hours), at most 1 μg/mL. The “ED50 (dose required to produce 50% of the maximum reduction in thigh titre)” value in the data set with MRSA 33591 [5] was below 0.20 mg/kg. In addition, the aqueous solubility (usually the concentration that dissolves in the medium under given conditions) in data set [6] is listed as above 47.9 mg/mL.
For the compound `CN[C@H](CC(C)C)C(=O)N[C@H]1C(=O)N[C@@H](CC(N)=O)C(=O)N[C@H]2C(=O)N[C@H]3C(=O)N[C@H](C(=O)N[C@H](C(=O)O)c4cc(O)cc(O)c4-c4cc3ccc4O)[C@H](O)c3ccc(c(Cl)c3)Oc3cc2cc(c3O[C@@H]2O[C@H](CO)[C@@H](O)[C@H](O)[C@H]2O[C@H]2C[C@](C)(N)[C@H](O)[C@H](C)O2)Oc2ccc(cc2Cl)[C@H]1O` [Vancomycin, vancomycin, reference compound], the MIC90 in data set [1] (Staphylococcus aureus, read-out: MIC90 (minimum inhibitory concentration for 90% of strains tested)) was found to be 3 µg/mL (≈ 2.07 µM); in data set [2] (Staphylococcus epidermidis, MRSE, read-out: MIC90 (minimum inhibitory concentration for 90% of strains tested)), 4 µg/mL (≈ 2.76 µM). The “bactericidal concentration (≧3 log decrease in bacterial cell numbers)” value in the data set with MSSA 13709 (MSSA 13709, in 24 hours) is given as 4 μg/mL; in the data set with MRSA 33591 [4] (MRSA 33591, in 24 hours), 4 μg/mL. Also, the ED50 (usually the dose that gives a 50% effect, or the effect in half of the subjects) in the data set on MRSA 33591 [5] (Staphylococcus aureus, read-out: ED50 (dose required to produce 50% of the maximum reduction in thigh titre)) worked out at 9 mg/kg.
Take `CNC(CC(C)C)C(=O)NC1C(=O)NC(CC(N)=O)C(=O)NC2C(=O)NC3C(=O)NC(C(=O)NC(C(=O)NCCCON=C(C(=O)NC4C(=O)N5C(C(=O)[O-])=C(C[n+]6ccccc6)CSC45)c4csc(N)n4)c4cc(O)cc(O)c4-c4cc3ccc4O)C(O)c3ccc(c(Cl)c3)Oc3cc2cc(c3OC2OC(CO)C(O)C(O)C2OC2CC(C)(N)C(O)C(C)O2)Oc2ccc(cc2Cl)C1O` (centres unmarked) [Compound 34, reference compound]: the MIC in data set [3] (MRSA 33591) was 0.17 µg/mL (≈ 0.0872 µM); in data set [3] (MRSA MED-84), 0.29 µg/mL (≈ 0.149 µM); in data set [3] (MRSA MED-85), 0.32 µg/mL (≈ 0.164 µM); in data set [3] (MRSA MED-86), 0.29 µg/mL (≈ 0.149 µM); in data set [3] (MRSA MED-87), 0.49 µg/mL (≈ 0.251 µM); in data set [3] (MRSA MED-88), 0.34 µg/mL (≈ 0.174 µM). In addition, the minimal inhibitory concentration (MIC) in data set [3] (MRSA MED-89) was 0.18 µg/mL (≈ 0.0924 µM); in data set [3] (MRSA MED-103), 0.20 µg/mL (≈ 0.103 µM); in data set [3] (MRSA MED-104), 0.58 µg/mL (≈ 0.298 µM); in data set [3] (MRSA MED-107), 0.34 µg/mL (≈ 0.174 µM); in data set [3] (MRSA MED-110), 0.49 µg/mL (≈ 0.251 µM); in data set [3] (MRSA MED-572) it was below 0.1 µg/mL.
